PubChem BioAssay (NCI)
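GI50: concentration for 50% inhibition of growth. TGI: concentration producing complete growth inhibition.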

What was measured:
Assay in all cases: NCI-60 cell line screen, 384-well format
NCI/ADR-RES ovarian = system: NCI/ADR-RES ovarian
A498 renal = system: A498 renal
SN12C renal = system: SN12C renal
K-562 leukemia = system: K-562 leukemia
OVCAR-5 ovarian = system: OVCAR-5 ovarian
NCI-H460 NSCLC = system: NCI-H460 NSCLC
HCC-2998 colon = system: HCC-2998 colon
SK-MEL-28 melanoma = system: SK-MEL-28 melanoma
786-0 renal = system: 786-0 renal
MDA-MB-468 breast = system: MDA-MB-468 breast
T-47D breast = system: T-47D breast
SK-OV-3 ovarian = system: SK-OV-3 ovarian
MCF7 breast = system: MCF7 breast
NCI-H23 lung = system: NCI-H23 lung
DU-145 prostate = system: DU-145 prostate
BT-549 breast = system: BT-549 breast
CCRF-CEM leukemia = system: CCRF-CEM leukemia
KM12 colon = system: KM12 colon
HOP-92 NSCLC = system: HOP-92 NSCLC
MDA-MB-435 melanoma = system: MDA-MB-435 melanoma
SK-MEL-5 melanoma = system: SK-MEL-5 melanoma
SK-MEL-2 melanoma = system: SK-MEL-2 melanoma
HCT-116 colon = system: HCT-116 colon
IGROV1 ovarian = system: IGROV1 ovarian
MDA-MB-231 breast = system: MDA-MB-231 breast
ACHN renal = system: ACHN renal
NCI-H522 lung = system: NCI-H522 lung
A549 NSCLC = system: A549 NSCLC
CAKI-1 renal = system: CAKI-1 renal
SF-539 CNS = system: SF-539 CNS
UACC-257 melanoma = system: UACC-257 melanoma
NCI-H322M lung = system: NCI-H322M lung
OVCAR-3 ovarian = system: OVCAR-3 ovarian
TK-10 renal = system: TK-10 renal
SR leukemia = system: SR leukemia
UO-31 renal = system: UO-31 renal
U251 glioblastoma = system: U251 glioblastoma
NCI-H226 lung = system: NCI-H226 lung
UACC-62 melanoma = system: UACC-62 melanoma
SF-268 CNS = system: SF-268 CNS
SW-620 colon = system: SW-620 colon
HCT-15 colon = system: HCT-15 colon
MOLT-4 leukemia = system: MOLT-4 leukemia
SF-295 CNS = system: SF-295 CNS
MALME-3M melanoma = system: MALME-3M melanoma
LOX IMVI melanoma = system: LOX IMVI melanoma
HL-60(TB) leukemia = system: HL-60(TB) leukemia
M14 melanoma = system: M14 melanoma
COLO 205 colon = system: COLO 205 colon
RXF 393 renal = system: RXF 393 renal
OVCAR-4 ovarian = system: OVCAR-4 ovarian
SNB-19 CNS = system: SNB-19 CNS
HOP-62 NSCLC = system: HOP-62 NSCLC
HT29 colon = system: HT29 colon
RPMI-8226 leukemia = system: RPMI-8226 leukemia
OVCAR-8 ovarian = system: OVCAR-8 ovarian
PC-3 prostate = system: PC-3 prostate

## Cn1ncnc1[C@@H]1c2n[nH]c(=O)c3cc(F)cc(c23)N[C@H]1c1ccc(F)cc1
NCI/ADR-RES ovarian
  GI50: > 100 µM
  TGI: > 100 µM
A498 renal
  GI50: > 100 µM
  TGI: > 100 µM
SN12C renal
  GI50: > 100 µM
  TGI: > 100 µM
K-562 leukemia
  GI50: > 100 µM
  TGI: > 100 µM
OVCAR-5 ovarian
  GI50: > 100 µM
  TGI: > 100 µM
NCI-H460 NSCLC
  GI50: 17.3 µM
  TGI: > 100 µM
HCC-2998 colon
  GI50: 43.1 µM
  TGI: > 100 µM
SK-MEL-28 melanoma
  GI50: > 100 µM
  TGI: > 100 µM
786-0 renal
  GI50: > 100 µM
  TGI: > 100 µM
MDA-MB-468 breast
  GI50: 57.1 µM
  TGI: > 100 µM
T-47D breast
  GI50: > 100 µM
  TGI: > 100 µM
SK-OV-3 ovarian
  GI50: > 100 µM
  TGI: > 100 µM
MCF7 breast
  GI50: > 100 µM
  TGI: > 100 µM
NCI-H23 lung
  GI50: > 100 µM
  TGI: > 100 µM
DU-145 prostate
  GI50: > 100 µM
  TGI: > 100 µM
BT-549 breast
  GI50: > 100 µM
  TGI: > 100 µM
CCRF-CEM leukemia
  GI50: 40.9 µM
  TGI: > 100 µM
KM12 colon
  GI50: > 100 µM
  TGI: > 100 µM
HOP-92 NSCLC
  GI50: > 100 µM
  TGI: > 100 µM
MDA-MB-435 melanoma
  GI50: > 100 µM
  TGI: > 100 µM
SK-MEL-5 melanoma
  GI50: > 100 µM
  TGI: > 100 µM
SK-MEL-2 melanoma
  GI50: > 100 µM
  TGI: > 100 µM
HCT-116 colon
  GI50: 74.9 µM
  TGI: > 100 µM
IGROV1 ovarian
  GI50: > 100 µM
  TGI: > 100 µM
MDA-MB-231 breast
  GI50: > 100 µM
  TGI: > 100 µM
ACHN renal
  GI50: > 100 µM
  TGI: > 100 µM
NCI-H522 lung
  GI50: 97.7 µM
  TGI: > 100 µM
A549 NSCLC
  GI50: > 100 µM
  TGI: > 100 µM
CAKI-1 renal
  GI50: > 100 µM
  TGI: > 100 µM
SF-539 CNS
  GI50: > 100 µM
  TGI: > 100 µM
UACC-257 melanoma
  GI50: > 100 µM
  TGI: > 100 µM
NCI-H322M lung
  GI50: > 100 µM
  TGI: > 100 µM
OVCAR-3 ovarian
  GI50: > 100 µM
  TGI: > 100 µM
TK-10 renal
  GI50: > 100 µM
  TGI: > 100 µM
SR leukemia
  GI50: 2.61 µM
  TGI: 11.6 µM
UO-31 renal
  GI50: > 100 µM
  TGI: > 100 µM
U251 glioblastoma
  GI50: > 100 µM
  TGI: > 100 µM
NCI-H226 lung
  GI50: > 100 µM
  TGI: > 100 µM
UACC-62 melanoma
  GI50: > 100 µM
  TGI: > 100 µM
SF-268 CNS
  GI50: > 100 µM
  TGI: > 100 µM
SW-620 colon
  GI50: 70.9 µM
  TGI: > 100 µM
HCT-15 colon
  GI50: > 100 µM
  TGI: > 100 µM
MOLT-4 leukemia
  GI50: 11.4 µM
  TGI: 24.6 µM
SF-295 CNS
  GI50: > 100 µM
  TGI: > 100 µM
MALME-3M melanoma
  GI50: > 100 µM
  TGI: > 100 µM
LOX IMVI melanoma
  GI50: > 100 µM
  TGI: > 100 µM
HL-60(TB) leukemia
  GI50: > 100 µM
  TGI: > 100 µM
M14 melanoma
  GI50: > 100 µM
  TGI: > 100 µM
COLO 205 colon
  GI50: > 100 µM
  TGI: > 100 µM
RXF 393 renal
  GI50: 52.3 µM
  TGI: > 100 µM
OVCAR-4 ovarian
  GI50: > 100 µM
  TGI: > 100 µM
SNB-19 CNS
  GI50: > 100 µM
  TGI: > 100 µM
HOP-62 NSCLC
  GI50: > 100 µM
  TGI: > 100 µM
HT29 colon
  GI50: > 100 µM
  TGI: > 100 µM
RPMI-8226 leukemia
  GI50: 78.9 µM
  TGI: > 100 µM
OVCAR-8 ovarian
  GI50: > 100 µM
  TGI: > 100 µM
PC-3 prostate
  GI50: > 100 µM
  TGI: > 100 µM
